According to patent publication US9586945B2, “Aminochromane, aminothiochromane and amino-1,2,3,4-tetrahydroquinoline derivatives, pharmaceutical compositions containing them, and their use in therapy” (AbbVie Deutschland GmbH & Co. KG, priority 2013, dated 2017):

Tests used:
[1] = Metabolic stability in human liver microsomes; type: in vitro ADME; details: 0.5 μM test substance, NADPH, 37° C., scaled microsomal clearance, examples marked * tested as fumarate salts
Experimental: Metabolic stability was determined as follows:
0.5 μM test substance was preincubated together with human liver microsomes (0.25 mg of microsomal protein/[…]) in 0.05 M potassium phosphate buffer of pH 7.4 in microtiter plates at 37° C. for 5 min. The reaction was started by adding NADPH (1.0 mM). After 0, 5, 10, 15, 20 and 30 min the reaction was stopped and cooled with twice the amount of quench solution consisting of acetonitrile/methanol 1:1, and containing 0.2 μM carbutamide. The samples were frozen until analyzed. The remaining concentration of undegraded test substance was determined by LC MSMS. The half-life (T1/2) was determined from the gradient of the signal of test substance/unit time plot, al-lowing to calculate the half-life of the test substance, assuming first order kinetics, from the de-crease in the concentration of the compound with time. The microsomal clearance (mClint) was calculated as follows: mClint=((ln(2)/t1/2)/Microsomal Protein Concentration (mg/ml))*1000, leading to the unit of uL/min/mg. The scaled clearance (mClin_scaled) was calculated as mCLint_scaled=m CLint*(Microsomal Yield (mg/kg BW))/1000000*60, leading to the units L/hr/kg. The Microsomal Yield is defined by the specifics of the used microsomes. Calculations were modified from references: Di, The Society for Biomolecular Screening, 2003, 453-462; Obach, DMD, 1999 vol 27. N 11, 1350-1359.

human GlyT1c transporter = human GlyT1c transporter (Homo sapiens (Human), UniProt P48067); assay: Radioligand binding assay using recombinant CHO cell membranes expressing human GlyT1; details: examples marked * tested as fumarate salts, read-out: radioligand binding Kiapp
Sequence of human GlyT1c transporter (P48067 whole entry): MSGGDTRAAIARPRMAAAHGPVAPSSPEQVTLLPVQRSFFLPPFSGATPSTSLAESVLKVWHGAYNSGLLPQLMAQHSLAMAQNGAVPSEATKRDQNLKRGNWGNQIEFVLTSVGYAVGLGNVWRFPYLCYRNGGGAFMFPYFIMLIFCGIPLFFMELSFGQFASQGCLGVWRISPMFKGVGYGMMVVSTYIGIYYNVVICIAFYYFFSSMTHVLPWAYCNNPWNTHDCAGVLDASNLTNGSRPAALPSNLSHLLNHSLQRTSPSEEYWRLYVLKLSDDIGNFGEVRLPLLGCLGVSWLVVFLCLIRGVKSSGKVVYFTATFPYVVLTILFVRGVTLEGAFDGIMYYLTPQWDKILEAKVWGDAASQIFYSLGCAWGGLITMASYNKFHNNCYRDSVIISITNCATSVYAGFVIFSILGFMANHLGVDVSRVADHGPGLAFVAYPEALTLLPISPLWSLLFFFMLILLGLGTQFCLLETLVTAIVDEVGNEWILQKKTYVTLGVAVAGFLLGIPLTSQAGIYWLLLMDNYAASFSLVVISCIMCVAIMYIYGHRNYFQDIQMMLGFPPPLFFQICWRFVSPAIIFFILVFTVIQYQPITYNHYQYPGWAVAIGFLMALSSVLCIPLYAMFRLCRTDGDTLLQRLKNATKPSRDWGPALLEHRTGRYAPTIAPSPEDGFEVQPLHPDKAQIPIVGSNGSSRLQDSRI

Row | human mCl [1] | Ki (human GlyT1c transporter) [nM] | SMILES
1 | ≦5 L/h/Kg |  | CN[C@H]1COc2cc(F)c(N3CC(NS(=O)(=O)c4cn(C)cn4)C3)cc2[C@H]1Cc1ccccc1 (relative stereo) [Example 15a, Cis-N-(1-(4-benzyl-7-fluoro-3-(methylamino)chroman-6-yl)azetidin-3-yl)-1-methyl-1H-imidazole-4-sulfonamide]
2 | ≦5 L/h/Kg |  | CCS(=O)(=O)NC1CN(c2cc3c(cc2F)OC[C@H](NC)[C@H]3Cc2ccccc2)C1 (relative stereo) [Example 14b, trans-N-(1-(4-benzyl-7-fluoro-3-(methylamino)chroman-6-yl)azetidin-3-yl)ethanesulfonamide]
3 | ≦5 L/h/Kg |  | CN[C@H]1COc2cc(F)c(N3CC(NS(=O)(=O)c4cnn(C)c4)C3)cc2[C@H]1Cc1ccccc1 (relative stereo) [Example 17a, Cis-N-(1-(4-benzyl-7-fluoro-3-(methylamino)chroman-6-yl)azetidin-3-yl)-1-methyl-1H-pyrazole-4-sulfonamide]
4 |  | ≤ 10 | CNC1COc2cc(F)c(N3CC(NS(=O)(=O)CC4CC4)C3)cc2C1Cc1ccccc1 (single isomer, unassigned) [Example 19b, trans-N-(1-(4-benzyl-7-fluoro-3-(methylamino)chroman-6-yl)azetidin-3-yl)-1-cyclopropylmethanesulfonamide]
5 | ≦50 L/h/Kg | ≤ 1000 | CCCS(=O)(=O)NC1CN(c2ccc3c(c2)C(Cc2ccccc2)C(NC)CO3)C1 (single isomer, unassigned) [Example 23, Cis-N-(1-(4-benzyl-3-(methylamino)chroman-6-yl)azetidin-3-yl)propane-1-sulfonamide]
6 |  | ≤ 10 | CCCS(=O)(=O)NC1CN(c2cc3c(cc2F)OCC(NC)C3Cc2ccccc2)C1 (single isomer, unassigned) [Example 16b, trans-N-(1-(4-benzyl-7-fluoro-3-(methylamino)chroman-6-yl)azetidin-3-yl)propane-1-sulfonamide]
7 |  | ≤ 10 | CNC1COc2cc(F)c(N3CC(NS(=O)(=O)c4cn(C)nn4)C3)cc2C1Cc1ccccc1 (single isomer, unassigned) [Example 18a, Cis-N-(1-(4-benzyl-7-fluoro-3-(methylamino)chroman-6-yl)azetidin-3-yl)-1-methyl-1H-1,2,3-triazole-4-sulfonamide]
8 | ≦5 L/h/Kg |  | CCCS(=O)(=O)NC1CN(c2cc3c(cc2F)OC[C@H](NC)[C@@H]3Cc2ccccc2)C1 (relative stereo) [Example 16a, Cis-N-(1-(4-benzyl-7-fluoro-3-(methylamino)chroman-6-yl)azetidin-3-yl)propane-1-sulfonamide]
9 | ≦50 L/h/Kg |  | CN[C@H]1COc2cc(F)c(N3CC(NS(=O)(=O)CC4CC4)C3)cc2[C@H]1Cc1ccccc1 (relative stereo) [Example 19a, Cis-N-(1-(4-benzyl-7-fluoro-3-(methylamino)chroman-6-yl)azetidin-3-yl)-1-cyclopropylmethanesulfonamide]
10 |  | ≤ 10 | CNC1COc2cc(F)c(N3CC(NS(=O)(=O)c4cnn(C)c4)C3)cc2C1Cc1ccccc1 (single isomer, unassigned) [Example 17b, trans-N-(1-(4-benzyl-7-fluoro-3-(methylamino)chroman-6-yl)azetidin-3-yl)-1-methyl-1H-pyrazole-4-sulfonamide]
11 |  | ≤ 100 | CCS(=O)(=O)NC1CN(c2cc3c(cc2F)OCC(NC)C3Cc2ccccc2)C1 (single isomer, unassigned) [Example 14a, Cis-N-(1-(4-benzyl-7-fluoro-3-(methylamino)chroman-6-yl)azetidin-3-yl)ethanesulfonamide]
12 | ≦5 L/h/Kg |  | CCS(=O)(=O)NC1CN(c2cc3c(cc2F)OC[C@H](NC)[C@@H]3Cc2ccccc2)C1 (relative stereo) [Example 14a, Cis-N-(1-(4-benzyl-7-fluoro-3-(methylamino)chroman-6-yl)azetidin-3-yl)ethanesulfonamide]
13 |  | ≤ 10 | CNC1COc2cc(F)c(N3CC(NS(=O)(=O)c4cn(C)cn4)C3)cc2C1Cc1ccccc1 (single isomer, unassigned) [Example 15b, trans-N-(1-(4-benzyl-7-fluoro-3-(methylamino)chroman-6-yl)azetidin-3-yl)-1-methyl-1H-imidazole-4-sulfonamide]
14 | ≦5 L/h/Kg |  | CN[C@H]1COc2cc(F)c(N3CC(NS(=O)(=O)c4cn(C)nn4)C3)cc2[C@@H]1Cc1ccccc1 (relative stereo) [Example 18b, trans-N-(1-(4-benzyl-7-fluoro-3-(methylamino)chroman-6-yl)azetidin-3-yl)-1-methyl-1H-1,2,3-triazole-4-sulfonamide]
15 | ≦50 L/h/Kg |  | CN[C@H]1COc2cc(F)c(N3CC(NS(=O)(=O)c4cn(C)nn4)C3)cc2[C@H]1Cc1ccccc1 (relative stereo) [Example 18a, Cis-N-(1-(4-benzyl-7-fluoro-3-(methylamino)chroman-6-yl)azetidin-3-yl)-1-methyl-1H-1,2,3-triazole-4-sulfonamide]
16 |  | ≤ 100 | CCn1cc(S(=O)(=O)NC2CN(c3cc4c(cc3F)OC[C@@H](N3CCC3)[C@H]4Cc3ccccc3)C2)nn1 (relative stereo) [Example 7, Cis-N-(1-(3-(azetidin-1-yl)-4-benzyl-7-fluorochroman-6-yl)azetidin-3-yl)-1-ethyl-1H-1,2,3-triazole-4-sulfonamide]
17 | ≦5 L/h/Kg |  | CN[C@H]1COc2cc(F)c(N3CC(NS(=O)(=O)c4cn(C)cn4)C3)cc2[C@@H]1Cc1ccccc1 (relative stereo) [Example 15b, trans-N-(1-(4-benzyl-7-fluoro-3-(methylamino)chroman-6-yl)azetidin-3-yl)-1-methyl-1H-imidazole-4-sulfonamide]
18 |  | ≤ 10 | CNC1COc2cc(F)c(N3CC(NS(=O)(=O)c4cn(C)cn4)C3)cc2C1Cc1ccccc1 (single isomer, unassigned) [Example 15a, Cis-N-(1-(4-benzyl-7-fluoro-3-(methylamino)chroman-6-yl)azetidin-3-yl)-1-methyl-1H-imidazole-4-sulfonamide]
19 |  | ≤ 10 | CCCS(=O)(=O)NC1CN(c2cc3c(cc2F)OCC(NC)C3Cc2ccccc2)C1 (single isomer, unassigned) [Example 16a, Cis-N-(1-(4-benzyl-7-fluoro-3-(methylamino)chroman-6-yl)azetidin-3-yl)propane-1-sulfonamide]
20 |  | ≤ 100 | CCS(=O)(=O)NC1CN(c2cc3c(cc2F)OCC(NC)C3Cc2ccccc2)C1 (single isomer, unassigned) [Example 14b, trans-N-(1-(4-benzyl-7-fluoro-3-(methylamino)chroman-6-yl)azetidin-3-yl)ethanesulfonamide]
21 |  | ≤ 10 | CNC1COc2cc(F)c(N3CC(NS(=O)(=O)CC4CC4)C3)cc2C1Cc1ccccc1 (single isomer, unassigned) [Example 19a, Cis-N-(1-(4-benzyl-7-fluoro-3-(methylamino)chroman-6-yl)azetidin-3-yl)-1-cyclopropylmethanesulfonamide]
22 |  | ≤ 10 | CNC1COc2cc(F)c(N3CC(NS(=O)(=O)c4cnn(C)c4)C3)cc2C1Cc1ccccc1 (single isomer, unassigned) [Example 17a, Cis-N-(1-(4-benzyl-7-fluoro-3-(methylamino)chroman-6-yl)azetidin-3-yl)-1-methyl-1H-pyrazole-4-sulfonamide]
23 | ≦50 L/h/Kg |  | CN[C@H]1COc2cc(F)c(N3CC(NS(=O)(=O)CC4CC4)C3)cc2[C@@H]1Cc1ccccc1 (relative stereo) [Example 19b, trans-N-(1-(4-benzyl-7-fluoro-3-(methylamino)chroman-6-yl)azetidin-3-yl)-1-cyclopropylmethanesulfonamide]
24 |  | ≤ 10 | CNC1COc2cc(F)c(N3CC(NS(=O)(=O)c4cn(C)nn4)C3)cc2C1Cc1ccccc1 (single isomer, unassigned) [Example 18b, trans-N-(1-(4-benzyl-7-fluoro-3-(methylamino)chroman-6-yl)azetidin-3-yl)-1-methyl-1H-1,2,3-triazole-4-sulfonamide]
25 |  | ≤ 100 | CCCS(=O)(=O)NC1CN(c2ccc3c(c2)[C@H](Cc2ccccc2)[C@H](N)CO3)C1 (relative stereo) [Example 20, Cis-N-(1-(3-amino-4-benzylchroman-6-yl)azetidin-3-yl)propane-1-sulfonamide]
26 | ≦5 L/h/Kg |  | CCCS(=O)(=O)NC1CN(c2cc3c(cc2F)OC[C@H](NC)[C@H]3Cc2ccccc2)C1 (relative stereo) [Example 16b, trans-N-(1-(4-benzyl-7-fluoro-3-(methylamino)chroman-6-yl)azetidin-3-yl)propane-1-sulfonamide]
27 | ≦5 L/h/Kg |  | CN[C@H]1COc2cc(F)c(N3CC(NS(=O)(=O)c4cnn(C)c4)C3)cc2[C@@H]1Cc1ccccc1 (relative stereo) [Example 17b, trans-N-(1-(4-benzyl-7-fluoro-3-(methylamino)chroman-6-yl)azetidin-3-yl)-1-methyl-1H-pyrazole-4-sulfonamide]
